Read-outs that look alike come from different tables or passages of the source.

For this experiment, the system named is HIV-1 (H9/IIIB strain). The experiment in a line: Multiple round HIV-1 infection assay (Viking assay), HIV-1 replication in MT4-GFP cells. It counts as cell-based. Particulars: MT4-GFP cells infected with HIV-1 H9/IIIB. The method, then:
The antiviral activity of the tenofovir prodrugs of the Examples herein was assessed in an assay that measures the rate of replication of HIV in cell culture, termed the Viking assay (VIral KINetics in Green cells) and performed as follows. HIV-1 replication was monitored using MT4-gag-GFP clone D3 (hereafter designated MT4-GFP; GFP is green fluorescent protein), which are MT-4 cells modified to harbor a GFP reporter gene, the expression of which is dependent on the HIV-1 expressed proteins tat and rev; see Wang Y-J et al., 2010J Virological Methods 165:230-237. Productive infection of an MT4-GFP cell with HIV-1 results in GFP expression approximately 24 h post-infection. MT4-GFP cells were maintained at 37° C./5% CO2/90% relative humidity in RPMI 1640 supplemented with 10% fetal bovine serum, 100 U/ml penicillin/streptomycin, and 400 μg/ml G418 to maintain the reporter gene. For infections, MT4-GFP cells were placed in the same medium lacking G418 and infected overnight with HIV-1 (H9/IIIB strain) virus at an approximate multiplicity of infection of 0.01 in the same incubation conditions. Cells were then washed and re-suspended in either RPMI 1640 supplemented with 10% or 50% normal human serum (NHS) at 1.6×10^5 cells/mL (10% NHS or 50% NHS, respectively). Compound plates were prepared by dispensing compounds dissolved in DMSO into wells of 384 well poly-D-lysine-coated plates (0.2 μl/well) using an ECHO acoustic dispenser. Each compound was tested in a 10-point serial 3-fold dilution (typical final concentrations: 8.4 μM-0.42 nM). Controls included no inhibitor (DMSO only) and a combination of three antiviral agents (efavirenz, indinavir, and an integrase strand transfer inhibitor at final concentrations of 4 μM each). Cells were added (50 μL/well) to compound plates and the infected cells were maintained at 37′C/5% CO2/90% relative humidity.
Infected cells were quantified at two time points, ˜48 h and ˜72 h post-infection, by counting the number of green cells in each well using an Acumen eX3 scanner. The increase in the number of green cells over ˜24 h period gives the reproductive ratio, R0, which is typically 5-15 and has been shown experimentally to be in logarithmic phase (data not shown). R0 is calculated for each well, and IC50s determined by non-linear 4-parameter curve fitting.

Where [1] appears, read: 10% normal human serum, read-out: Viking, IC50 (10% NHS).
Where [2] appears, read: 50% normal human serum, read-out: Viking, IC50 (50% NHS).
[3] abbreviates: Human immunodeficiency virus 1, IIIB, 10% normal human serum, read-out: Viking, IC50 (10% NHS).

A word on the IC50: it is the midpoint of a concentration-inhibition curve. `CCCCCOC(=O)C(C)(C)NP(=O)(CO[C@H](C)Cn1cnc2c(N)ncnc21)N[C@H](C)C(=O)OC1CCC1` (single isomer, unassigned) [Example 19A]: the IC50 runs as follows: under setting [1], 6.9 nM; under setting [2], 27.4 nM.

Turning to `CCCCCCOC(=O)[C@@H](C)NP(=O)(CO[C@H](C)Cn1cnc2c(N)ncnc21)NC(C)(C)C(=O)OC(C)C` (single isomer, unassigned) [Example 7B], the IC50 runs as follows: under setting [1], 4.7 nM; under setting [2], 28.8 nM.

As for `CCCCCCOC(=O)C(C)(C)NP(=O)(CO[C@H](C)Cn1cnc2c(N)ncnc21)N[C@H](C)C(=O)OCCCC` (single isomer, unassigned) [Example 11A], the IC50 was 9.9 nM under setting [1] and 99 nM under setting [2].

For `CCCCCCOC(=O)C(C)(C)NP(=O)(CO[C@H](C)Cn1cnc2c(N)ncnc21)N[C@H](C)C(=O)OCCCC` (single isomer, unassigned) [Example 11B], the IC50 reads like this: under setting [1], 0.8 nM; under setting [2], 2.6 nM.

In the case of `CCCCCCOC(=O)C(C)(C)NP(=O)(CO[C@H](C)Cn1cnc2c(N)ncnc21)N[C@H](C)C(=O)OCC(C)C` (single isomer, unassigned) [Example 10A], the IC50 amounted to 6.6 nM under setting [1] and 72.5 nM under setting [2].

Take `CCCCCOC(=O)[C@H]1CCCN1P(=O)(CO[C@H](C)Cn1cnc2c(N)ncnc21)NC(C)(C)C(=O)OCCCCC` (single isomer, unassigned) [Example 26A]: the IC50 runs as follows: under setting [3], 5.3 nM; under setting [2], 50.3 nM.

On to `CC(C)OC(=O)[C@@H](C)NP(=O)(CO[C@H](C)Cn1cnc2c(N)ncnc21)NC(C)(C)C(=O)OC(C)C` (single isomer, unassigned) [Example 4B], for which the IC50 runs as follows: under setting [1], 74.6 nM; under setting [2], 122 nM.

As for `CC(C)COC(=O)[C@@H](C)NP(=O)(CO[C@H](C)Cn1cnc2c(N)ncnc21)NC(C)(C)C(=O)OC(C)C` (single isomer, unassigned) [Example 5A], the IC50 worked out at 33.1 nM under setting [1] and 129 nM under setting [2].

Consider `CCCCOC(=O)C(C)(C)NP(=O)(CO[C@H](C)Cn1cnc2c(N)ncnc21)N[C@H](C)C(=O)OC1CCC1` (single isomer, unassigned) [Example 23A], for which the IC50 under setting [3] was 6.7 nM and the IC50 under setting [2] was found to be 35.5 nM.

Take `CCCCOC(=O)[C@@H](C)NP(=O)(CO[C@H](C)Cn1cnc2c(N)ncnc21)NC(C)(C)C(=O)OC(C)C` (single isomer, unassigned) [Example 3A]: the IC50 was 20.7 nM under setting [1] and 71.4 nM under setting [2].

Turning to `CC(C)OC(=O)[C@@H](C)NP(=O)(CO[C@H](C)Cn1cnc2c(N)ncnc21)NC(C)(C)C(=O)OC(C)C` (single isomer, unassigned) [Example 4A], the IC50 stood at 418 nM under setting [1] and 1400 nM under setting [2].

Consider `CCCCCCOC(=O)C(C)(C)NP(=O)(CO[C@H](C)Cn1cnc2c(N)ncnc21)N[C@H](C)C(=O)OC1CCCCC1` (single isomer, unassigned) [Example 15A], for which the IC50 is, setting by setting: under setting [1], 7.7 nM; under setting [2], 25.9 nM.

Consider `CCCCCCOC(=O)C(C)(C)NP(=O)(CO[C@H](C)Cn1cnc2c(N)ncnc21)N[C@H](C)C(=O)OC1CCC1` (single isomer, unassigned) [Example 21A], for which the IC50 was determined as 4.4 nM under setting [1] and 14.9 nM under setting [2].

Consider `CCCCCCOC(=O)C(C)(C)NP(=O)(CO[C@H](C)Cn1cnc2c(N)ncnc21)N[C@H](C)C(=O)OCCCCC` (single isomer, unassigned) [Example 12B], for which the IC50 stood at 0.5 nM under setting [1] and 3.3 nM under setting [2].

As to `CCCCCCOC(=O)C(C)(C)NP(=O)(CO[C@H](C)Cn1cnc2c(N)ncnc21)N[C@H](C)C(=O)OC1CCCC1` (single isomer, unassigned) [Example 14A], the IC50 was determined as 9.8 nM under setting [1] and 67.2 nM under setting [2].

As for `CCCCCOC(=O)[C@@H](C)NP(=O)(CO[C@H](C)Cn1cnc2c(N)ncnc21)NC(C)(C)C(=O)OCCCCC` (single isomer, unassigned) [Example 16A], the IC50 runs as follows: under setting [1], 10 nM; under setting [2], 60.1 nM.

Source of the values: patent US10745428B2, “Antiviral phosphodiamide prodrugs of tenofovir” (Merck Sharp & Dohme Corp., priority 2015, dated 2020).
